Assay results published in US20240239781A1, “1H-PYRAZOLE DERIVATIVES AS SIGMA LIGANDS” (ACONDICIONAMIENTO TARRASENSE, priority 2021, published 2024).

Key:
[1] = biological target: T1, human σ1 receptor (Homo sapiens, UniProt Q99720); assay: Human σ1 receptor radioligand assay ([3H](+)-pentazocine, transfected HEK-293 membranes); settings: class scale, read-out: Binding σ-1 Ki
T1 construct: expressed in transfected cells; host or cells: HEK-293
Protocol: Transfected HEK-293 membranes (7 μg) were incubated with 5 nM of [^3H](+)-pentazocine in assay buffer containing Tris-HCl 50 mM at pH 8. NBS (non-specific binding) was measured by adding 10 μM haloperidol. The binding of the test compound was measured at either one concentration (% inhibition at 1 or 10 μM) or five different concentrations to determine affinity values (Ki). Plates were incubated at 37° C. for 120 minutes. After the incubation period, the reaction mix was then transferred to MultiScreen HTS, FC plates (Millipore), filtered and plates were washed 3 times with ice-cold 10 mM Tris-HCL (pH7.4). Filters were dried and counted at approximately 40% efficiency in a MicroBeta scintillation counter (Perkin-Elmer) using EcoScint liquid scintillation cocktail.

[2] = biological target: T2, human σ2/TMEM97 receptor (Homo sapiens, UniProt Q5BJF2); assay: Binding assay to human σ2/TMEM97 receptor ([3H]-DTG, transfected HEK-293 membranes); settings: class scale, read-out: Binding σ-2 Ki
T2 construct: expressed in transfected cells; host or cells: HEK-293
Protocol: Transfected HEK-293 membranes (15 μg) were incubated with 10 nM [^3H]-1,3-Di-o-tolylguanidine (DTG) in assay buffer containing Tris-HCl 50 mM at pH 8.0. NSB (non-specific binding) was measured by adding 10 μM haloperidol. The binding of the test compound was measured at either one concentration (% inhibition at 1 or 10 μM) or five different concentrations to determine affinity values (Ki). Plates were incubated at 25° C. for 120 minutes. After the incubation period, the reaction mix was transferred to MultiScreen HTS, FC plates (Millipore), filtered and washed 3 times with ice-cold 10 mM Tris-HCL (pH 8.0). Filters were dried and counted at approximately 40% efficiency in a MicroBeta scintillation counter (Perkin-Elmer) using EcoScint liquid scintillation cocktail.

T1 sequence (Q99720 whole entry): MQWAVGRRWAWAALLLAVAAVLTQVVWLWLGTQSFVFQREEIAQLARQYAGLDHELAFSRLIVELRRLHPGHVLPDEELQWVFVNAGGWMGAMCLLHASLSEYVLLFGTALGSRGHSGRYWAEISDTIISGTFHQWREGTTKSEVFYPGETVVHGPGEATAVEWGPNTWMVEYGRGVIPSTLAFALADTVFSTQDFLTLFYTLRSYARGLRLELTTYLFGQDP
T2 sequence (Q5BJF2 whole entry): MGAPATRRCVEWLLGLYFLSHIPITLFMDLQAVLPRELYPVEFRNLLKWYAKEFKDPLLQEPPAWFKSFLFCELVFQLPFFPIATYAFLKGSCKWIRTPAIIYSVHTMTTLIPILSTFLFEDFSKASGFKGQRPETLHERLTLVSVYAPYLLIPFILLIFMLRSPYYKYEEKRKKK

| Ki [1] | Ki [2] | SMILES |
| --- | --- | --- |
| 100 to 500 nM | > 1000 nM | Cc1cc(-c2nn(C)c(Cl)c2CN2CCC(CNCCC(C)(C)C)C2)no1 (stereo not drawn) [Example 1, N-((1-((5-Chloro-1-methyl-3-(5-methylisoxazol-3-yl)-1H-pyrazol-4-yl)methyl)pyrrolidin-3-yl)methyl)-3,3-dimethylbutan-1-amine] |
| 500 to 1000 nM | > 1000 nM | Cc1cc(-c2nn(C)c(Cl)c2CN2CCCCC(NCCC(C)C)C2)no1 (stereo not drawn) [Example 2, 1-((5-Chloro-1-methyl-3-(5-methylisoxazol-3-yl)-1H-pyrazol-4-yl)methyl)-N-isopentylazepan-3-amine] |
| 500 to 1000 nM | > 1000 nM | Cc1cc(-c2nn(C)c(Cl)c2CN2CCCCC(NCCc3ccccc3)C2)no1 (stereo not drawn) [Example 3, 1-((5-Chloro-1-methyl-3-(5-methylisoxazol-3-yl)-1H-pyrazol-4-yl)methyl)-N-phenethylazepan-3-amine] |
| > 1000 nM | 500 to 1000 nM | Cc1cc(-c2nn(C)c(Cl)c2CN2CCCCC(NCC3CCOCC3)C2)no1 (stereo not drawn) [Example 4, 1-((5-Chloro-1-methyl-3-(5-methylisoxazol-3-yl)-1H-pyrazol-4-yl)methyl)-N-((tetrahydro-2H-pyran-4-yl)methyl)azepan-3-amine] |
| 500 to 1000 nM | 100 to 500 nM | Cc1cc(-c2nn(C)c(Cl)c2CN2CCC[C@@H](NCCC(C)C)C2)no1 [Example 5, (R)-1-((5-Chloro-1-methyl-3-(5-methylisoxazol-3-yl)-1H-pyrazol-4-yl)methyl)-N-isopentylpiperidin-3-amine] |
| 100 to 500 nM | > 1000 nM | Cc1cc(-c2nn(C)c(Cl)c2CN2CCC[C@H](NCCC(C)C)C2)no1 [Example 6, (S)-1-((5-Chloro-1-methyl-3-(5-methylisoxazol-3-yl)-1H-pyrazol-4-yl)methyl)-N-isopentylpiperidin-3-amine] |
| 100 to 500 nM | > 1000 nM | Cc1cc(-c2nn(C)c(Cl)c2CN2CCC[C@H](NCCc3ccccc3)C2)no1 [Example 7, (S)-1-((5-Chloro-1-methyl-3-(5-methylisoxazol-3-yl)-1H-pyrazol-4-yl)methyl)-N-phenethylpiperidin-3-amine] |
| 100 to 500 nM | 500 to 1000 nM | Cc1cc(-c2nn(C)c(Cl)c2CN2CCCCC(NCCC(C)(C)C)C2)no1 (stereo not drawn) [Example 8, 1-((5-Chloro-1-methyl-3-(5-methylisoxazol-3-yl)-1H-pyrazol-4-yl)methyl)-N-(3,3-dimethylbutyl)azepan-3-amine] |
| > 1000 nM | 500 to 1000 nM | CCCCNC1CCCCN(Cc2c(-c3cc(C)on3)nn(C)c2Cl)C1 (stereo not drawn) [Example 9, N-Butyl-1-((5-chloro-1-methyl-3-(5-methylisoxazol-3-yl)-1H-pyrazol-4-yl)methyl)azepan-3-amine] |
| 100 to 500 nM | 100 to 500 nM | Cc1cc(-c2nn(C)c(Cl)c2CN2CCCC[C@@H](NCCC(C)C)C2)no1 [Example 10, (R)-1-((5-Chloro-1-methyl-3-(5-methylisoxazol-3-yl)-1H-pyrazol-4-yl)methyl)-N-isopentylazepan-3-amine] |
| 500 to 1000 nM | 100 to 500 nM | Cc1cc(-c2nn(C)c(Cl)c2CN2CCC(NCCC(C)C)C2)no1 (stereo not drawn) [Example 11, 1-((5-Chloro-1-methyl-3-(5-methylisoxazol-3-yl)-1H-pyrazol-4-yl)methyl)-N-isopentylpyrrolidin-3-amine] |
| 100 to 500 nM | > 1000 nM | Cc1cc(-c2nn(C)c(Cl)c2CN2CCCC[C@H](NCCC(C)C)C2)no1 [Example 12, (S)-1-((5-Chloro-1-methyl-3-(5-methylisoxazol-3-yl)-1H-pyrazol-4-yl)methyl)-N-isopentylazepan-3-amine] |
| 100 to 500 nM | 100 to 500 nM | Cc1cc(-c2nn(C)c(Cl)c2CN2CCC(NCCC(C)(C)C)C2)no1 (stereo not drawn) [Example 13, 1-((5-Chloro-1-methyl-3-(5-methylisoxazol-3-yl)-1H-pyrazol-4-yl)methyl)-N-(3,3-dimethylbutyl)pyrrolidin-3-amine] |
| 100 to 500 nM | > 1000 nM | CCn1nc(-c2cc(C)on2)c(CN2CCCCC(NCCC(C)C)C2)c1Cl (stereo not drawn) [Example 14, 1-((5-Chloro-1-ethyl-3-(5-methylisoxazol-3-yl)-1H-pyrazol-4-yl)methyl)-N-isopentylazepan-3-amine] |
| 100 to 500 nM | > 1000 nM | CC(C)c1cc(-c2nn(C)c(Cl)c2CN2CCCCC(NCCC(C)(C)C)C2)no1 (stereo not drawn) [Example 15, 1-((5-Chloro-3-(5-isopropylisoxazol-3-yl)-1-methyl-1H-pyrazol-4-yl)methyl)-N-(3,3-dimethylbutyl)azepan-3-amine] |
| 100 to 500 nM | > 1000 nM | Cn1nc(-c2cc(C3CC3)on2)c(CN2CCCCC(NCCC(C)(C)C)C2)c1Cl (stereo not drawn) [Example 16, 1-((5-Chloro-3-(5-cyclopropylisoxazol-3-yl)-1-methyl-1H-pyrazol-4-yl)methyl)-N-(3,3-dimethylbutyl)azepan-3-amine] |
| 100 to 500 nM | > 1000 nM | CC(C)CCNC1CCCCN(Cc2c(-c3cc(C(C)C)on3)nn(C)c2Cl)C1 (stereo not drawn) [Example 17, 1-((5-Chloro-3-(5-isopropylisoxazol-3-yl)-1-methyl-1H-pyrazol-4-yl)methyl)-N-isopentylazepan-3-amine] |
| 100 to 500 nM | > 1000 nM | Cc1cc(-c2nn(-c3ccccc3)c(Cl)c2CN2CCCCC(NCCC(C)C)C2)no1 (stereo not drawn) [Example 18, 1-((5-Chloro-3-(5-methylisoxazol-3-yl)-1-phenyl-1H-pyrazol-4-yl)methyl)-N-isopentylazepan-3-amine] |
| 500 to 1000 nM | > 1000 nM | CC(C)CCNC1CCCCN(Cc2c(-c3cc(C4CC4)on3)nn(C)c2Cl)C1 (stereo not drawn) [Example 19, 1-((5-Chloro-3-(5-cyclopropylisoxazol-3-yl)-1-methyl-1H-pyrazol-4-yl)methyl)-N-isopentylazepan-3-amine] |
| 100 to 500 nM | 100 to 500 nM | CCc1cc(-c2nn(C)c(Cl)c2CN2CCCCC(NCCC(C)(C)C)C2)no1 (stereo not drawn) [Example 20, 1-((5-Chloro-3-(5-ethylisoxazol-3-yl)-1-methyl-1H-pyrazol-4-yl)methyl)-N-(3,3-dimethylbutyl)azepan-3-amine] |
| 500 to 1000 nM | 100 to 500 nM | CCc1cc(-c2nn(C)c(Cl)c2CN2CCCCC(NCCC(C)C)C2)no1 (stereo not drawn) [Example 21, 1-((5-Chloro-3-(5-ethylisoxazol-3-yl)-1-methyl-1H-pyrazol-4-yl)methyl)-N-isopentylazepan-3-amine] |
| 100 to 500 nM | 100 to 500 nM | CCn1nc(-c2cc(C)on2)c(CN2CCCCC(NCCC(C)(C)C)C2)c1Cl (stereo not drawn) [Example 22, 1-((5-Chloro-1-ethyl-3-(5-methylisoxazol-3-yl)-1H-pyrazol-4-yl)methyl)-N-(3,3-dimethylbutyl)azepan-3-amine] |
| 100 to 500 nM | < 100 nM | Cc1cc(-c2nn(C)c(Cl)c2CN2CCCC(NCCC(C)(C)C)CC2)no1 (stereo not drawn) [Example 23, 1-((5-Chloro-1-methyl-3-(5-methylisoxazol-3-yl)-1H-pyrazol-4-yl)methyl)-N-(3,3-dimethylbutyl)azepan-4-amine] |
| > 1000 nM | < 100 nM | Cc1cc(-c2nn(C)c(Cl)c2CN2CCCC(NCCC(C)C)CC2)no1 (stereo not drawn) [Example 24, 1-((5-Chloro-1-methyl-3-(5-methylisoxazol-3-yl)-1H-pyrazol-4-yl)methyl)-N-isopentylazepan-4-amine] |
| < 100 nM | > 1000 nM | Cn1nc(-c2ccccn2)c(CN2CCCCC(NCCC(C)(C)C)C2)c1Cl (stereo not drawn) [Example 25, 1-((5-Chloro-1-methyl-3-(pyridin-2-yl)-1H-pyrazol-4-yl)methyl)-N-(3,3-dimethylbutyl)azepan-3-amine] |
| 500 to 1000 nM | > 1000 nM | CC(C)CCNC1CCCCN(Cc2c(-c3ccccn3)nn(C)c2Cl)C1 (stereo not drawn) [Example 26, 1-((5-Chloro-1-methyl-3-(pyridin-2-yl)-1H-pyrazol-4-yl)methyl)-N-isopentylazepan-3-amine] |
| 100 to 500 nM | < 100 nM | Cc1conc1-c1nn(C)c(Cl)c1CN1CCCCC(NCCC(C)(C)C)C1 (stereo not drawn) [Example 27, 1-((5-Chloro-1-methyl-3-(4-methylisoxazol-3-yl)-1H-pyrazol-4-yl)methyl)-N-(3,3-dimethylbutyl)azepan-3-amine] |
| 100 to 500 nM | 100 to 500 nM | Cc1conc1-c1nn(C)c(Cl)c1CN1CCCCC(NCCC(C)C)C1 (stereo not drawn) [Example 28, 1-((5-Chloro-1-methyl-3-(4-methylisoxazol-3-yl)-1H-pyrazol-4-yl)methyl)-N-isopentylazepan-3-amine] |
| 500 to 1000 nM | 100 to 500 nM | Cc1cc(-c2nn(C)c(Cl)c2CN2CCC(CNCCC(C)C)C2)no1 (stereo not drawn) [Example 29, N-((1-((5-Chloro-1-methyl-3-(5-methylisoxazol-3-yl)-1H-pyrazol-4-yl)methyl)pyrrolidin-3-yl)methyl)-3-methylbutan-1-amine] |
| 100 to 500 nM | > 1000 nM | Cn1nc(-c2cccnc2)c(CN2CCCCC(NCCC(C)(C)C)C2)c1Cl (stereo not drawn) [Example 30, 1-((5-Chloro-1-methyl-3-(pyridin-3-yl)-1H-pyrazol-4-yl)methyl)-N-(3,3-dimethylbutyl)azepan-3-amine] |
